According to the NIST ThermoML archive (doi:10.1016/j.tca.2013.08.031):

Test: molar heat capacity at constant volume
Conditions: Fluid (supercritical or subcritical phases), Vacuum adiabatic calorimetry

CCC(C)O (stereo unspecified) [butan-2-ol]
Conditions	molar heat capacity at constant volume [J/K/mol]
462.76 K, Mass density=598.18 kg/m3	276.1
462.95 K, Mass density=598.18 kg/m3	279.07
463.15 K, Mass density=598.18 kg/m3	277.81
463.35 K, Mass density=598.18 kg/m3	282.48
463.45 K, Mass density=598.18 kg/m3	292.34
463.74 K, Mass density=598.18 kg/m3	258.76
463.93 K, Mass density=598.18 kg/m3	219.18
464.13 K, Mass density=598.18 kg/m3	217.62
464.33 K, Mass density=598.18 kg/m3	217.32
464.53 K, Mass density=598.18 kg/m3	218.88
464.72 K, Mass density=598.18 kg/m3	216.73
464.92 K, Mass density=598.18 kg/m3	217.62
465.11 K, Mass density=598.18 kg/m3	217.55
465.31 K, Mass density=598.18 kg/m3	218.07
467.66 K, Mass density=598.18 kg/m3	219.18
467.86 K, Mass density=598.18 kg/m3	218.88
468.05 K, Mass density=598.18 kg/m3	218.44
468.25 K, Mass density=598.18 kg/m3	219.84
468.45 K, Mass density=598.18 kg/m3	219.92
469.23 K, Mass density=598.18 kg/m3	222.44
469.42 K, Mass density=598.18 kg/m3	222.36
481.46 K, Mass density=538.17 kg/m3	279.66
481.66 K, Mass density=538.17 kg/m3	284.78
481.85 K, Mass density=538.17 kg/m3	283.59
482.04 K, Mass density=538.17 kg/m3	284.55
482.24 K, Mass density=538.17 kg/m3	286.41
482.43 K, Mass density=538.17 kg/m3	287.44
482.62 K, Mass density=538.17 kg/m3	289.22
482.81 K, Mass density=538.17 kg/m3	288.41
483.01 K, Mass density=538.17 kg/m3	289
483.2 K, Mass density=538.17 kg/m3	291.15
483.39 K, Mass density=538.17 kg/m3	289.82
483.58 K, Mass density=538.17 kg/m3	289.59
483.78 K, Mass density=538.17 kg/m3	289.59
487.62 K, Mass density=538.17 kg/m3	282.7
487.81 K, Mass density=538.17 kg/m3	280.25
488 K, Mass density=538.17 kg/m3	282.4
488.19 K, Mass density=538.17 kg/m3	287.74
488.39 K, Mass density=538.17 kg/m3	290.63
489.53 K, Mass density=538.17 kg/m3	283.44
489.73 K, Mass density=538.17 kg/m3	289.07
489.92 K, Mass density=538.17 kg/m3	294.19
490.11 K, Mass density=538.17 kg/m3	289.3
490.87 K, Mass density=538.17 kg/m3	282.03
491.06 K, Mass density=538.17 kg/m3	283.07
491.45 K, Mass density=538.17 kg/m3	285.52
491.64 K, Mass density=538.17 kg/m3	290.85
491.83 K, Mass density=538.17 kg/m3	286.92
492.02 K, Mass density=538.17 kg/m3	283.07
492.21 K, Mass density=538.17 kg/m3	281.44
492.4 K, Mass density=538.17 kg/m3	282.18
492.59 K, Mass density=538.17 kg/m3	258.31
492.78 K, Mass density=538.17 kg/m3	240.45
492.97 K, Mass density=538.17 kg/m3	211.02
493.16 K, Mass density=538.17 kg/m3	211.77
493.36 K, Mass density=538.17 kg/m3	215.03
493.55 K, Mass density=474.07 kg/m3	293.52
493.55 K, Mass density=538.17 kg/m3	215.03
493.74 K, Mass density=474.07 kg/m3	285.37
493.93 K, Mass density=474.07 kg/m3	291.3
494.12 K, Mass density=474.07 kg/m3	294.26
494.31 K, Mass density=474.07 kg/m3	297.97
494.5 K, Mass density=474.07 kg/m3	291.3
494.69 K, Mass density=474.07 kg/m3	288.33
494.88 K, Mass density=474.07 kg/m3	272.77
495.07 K, Mass density=474.07 kg/m3	277.21
495.26 K, Mass density=474.07 kg/m3	272.77
495.45 K, Mass density=474.07 kg/m3	279.44
501.71 K, Mass density=76.44 kg/m3	522.04
501.9 K, Mass density=76.44 kg/m3	509.29
502.09 K, Mass density=76.44 kg/m3	497.21
502.28 K, Mass density=76.44 kg/m3	502.03
502.46 K, Mass density=76.44 kg/m3	499.06
502.65 K, Mass density=76.44 kg/m3	495.28
502.84 K, Mass density=76.44 kg/m3	491.43
503.03 K, Mass density=76.44 kg/m3	490.83
503.22 K, Mass density=76.44 kg/m3	487.05
503.41 K, Mass density=76.44 kg/m3	488.98
503.6 K, Mass density=76.44 kg/m3	491.8
503.97 K, Mass density=76.44 kg/m3	497.73
504.16 K, Mass density=76.44 kg/m3	500.54
504.35 K, Mass density=76.44 kg/m3	512.25
504.54 K, Mass density=76.44 kg/m3	524.04
504.73 K, Mass density=76.44 kg/m3	551.69
504.92 K, Mass density=76.44 kg/m3	530.27
505.11 K, Mass density=76.44 kg/m3	521.82
505.29 K, Mass density=76.44 kg/m3	499.58
505.48 K, Mass density=76.44 kg/m3	412.34
505.67 K, Mass density=76.44 kg/m3	315.91
505.86 K, Mass density=76.44 kg/m3	251.94
506.05 K, Mass density=76.44 kg/m3	248.83
510.37 K, Mass density=474.07 kg/m3	291.3
510.55 K, Mass density=474.07 kg/m3	290.56
510.74 K, Mass density=474.07 kg/m3	293.52
510.93 K, Mass density=474.07 kg/m3	293.52
511.49 K, Mass density=474.07 kg/m3	292.04
511.68 K, Mass density=474.07 kg/m3	295
511.87 K, Mass density=474.07 kg/m3	292.78
512.43 K, Mass density=474.07 kg/m3	296.49
512.61 K, Mass density=474.07 kg/m3	295.75
512.8 K, Mass density=474.07 kg/m3	295.75
513.18 K, Mass density=95.93 kg/m3	639
513.36 K, Mass density=95.93 kg/m3	647.6
513.36 K, Mass density=474.07 kg/m3	281.66
513.55 K, Mass density=95.93 kg/m3	645.08
513.55 K, Mass density=474.07 kg/m3	293.52
513.74 K, Mass density=95.93 kg/m3	641.3
513.74 K, Mass density=474.07 kg/m3	293.52
513.92 K, Mass density=95.93 kg/m3	638.11
513.92 K, Mass density=474.07 kg/m3	295
514.11 K, Mass density=95.93 kg/m3	635.74
514.11 K, Mass density=474.07 kg/m3	289.82
514.3 K, Mass density=95.93 kg/m3	627.59
514.3 K, Mass density=474.07 kg/m3	283.14
514.48 K, Mass density=95.93 kg/m3	308.72
514.48 K, Mass density=474.07 kg/m3	295.75
514.67 K, Mass density=95.93 kg/m3	252.53
514.67 K, Mass density=474.07 kg/m3	285.37
514.86 K, Mass density=95.93 kg/m3	246.31
514.86 K, Mass density=474.07 kg/m3	291.3
515.04 K, Mass density=95.93 kg/m3	265.58
515.04 K, Mass density=474.07 kg/m3	286.85
515.23 K, Mass density=95.93 kg/m3	271.43
515.23 K, Mass density=474.07 kg/m3	240.9
515.42 K, Mass density=95.93 kg/m3	276.47
515.42 K, Mass density=474.07 kg/m3	230.52
515.6 K, Mass density=474.07 kg/m3	230.52
515.79 K, Mass density=95.93 kg/m3	198.72
515.79 K, Mass density=474.07 kg/m3	229.04
515.98 K, Mass density=95.93 kg/m3	206.28
515.98 K, Mass density=474.07 kg/m3	232.74
516.16 K, Mass density=95.93 kg/m3	200.65
516.35 K, Mass density=95.93 kg/m3	215.69
516.53 K, Mass density=95.93 kg/m3	229.41
516.53 K, Mass density=403.55 kg/m3	311.31
516.53 K, Mass density=474.07 kg/m3	220.14
516.72 K, Mass density=95.93 kg/m3	228.07
516.72 K, Mass density=403.55 kg/m3	309.83
516.72 K, Mass density=474.07 kg/m3	223.11
516.91 K, Mass density=95.93 kg/m3	243.71
516.91 K, Mass density=403.55 kg/m3	312.79
516.91 K, Mass density=474.07 kg/m3	221.62
516.91 K, Mass density=538.17 kg/m3	212.88
517.09 K, Mass density=95.93 kg/m3	203.61
517.09 K, Mass density=403.55 kg/m3	309.09
517.09 K, Mass density=474.07 kg/m3	222.36
517.09 K, Mass density=538.17 kg/m3	213.84
517.28 K, Mass density=95.93 kg/m3	224.96
517.28 K, Mass density=403.55 kg/m3	310.57
517.28 K, Mass density=538.17 kg/m3	214.06
517.47 K, Mass density=403.55 kg/m3	313.53
517.65 K, Mass density=403.55 kg/m3	309.09
520.44 K, Mass density=117 kg/m3	740.77
520.63 K, Mass density=117 kg/m3	732.54
520.81 K, Mass density=117 kg/m3	737.95
521 K, Mass density=117 kg/m3	726.1
521.18 K, Mass density=117 kg/m3	734.77
521.37 K, Mass density=117 kg/m3	723.58
521.55 K, Mass density=117 kg/m3	728.69
521.74 K, Mass density=117 kg/m3	715.2
521.74 K, Mass density=142.27 kg/m3	509.66
521.92 K, Mass density=117 kg/m3	709.42
521.92 K, Mass density=142.27 kg/m3	517.74
522.11 K, Mass density=117 kg/m3	639
522.11 K, Mass density=142.27 kg/m3	522.71
522.13 K, Mass density=117 kg/m3	606.09
522.15 K, Mass density=117 kg/m3	603.42
522.16 K, Mass density=117 kg/m3	599.35
522.18 K, Mass density=117 kg/m3	590.9
522.2 K, Mass density=117 kg/m3	590.9
522.22 K, Mass density=117 kg/m3	505.14
522.24 K, Mass density=117 kg/m3	408.41
522.26 K, Mass density=117 kg/m3	318.13
522.28 K, Mass density=117 kg/m3	304.49
522.3 K, Mass density=117 kg/m3	309.61
522.3 K, Mass density=142.27 kg/m3	521.45
522.31 K, Mass density=117 kg/m3	308.86
522.33 K, Mass density=117 kg/m3	298.12
522.35 K, Mass density=117 kg/m3	289.44
522.37 K, Mass density=117 kg/m3	280.77
522.39 K, Mass density=117 kg/m3	260.54
522.4 K, Mass density=117 kg/m3	247.05
522.42 K, Mass density=117 kg/m3	241.56
522.44 K, Mass density=117 kg/m3	241.56
522.46 K, Mass density=117 kg/m3	222.29
522.48 K, Mass density=117 kg/m3	221.62
522.48 K, Mass density=142.27 kg/m3	530.71
522.67 K, Mass density=117 kg/m3	241.78
522.67 K, Mass density=142.27 kg/m3	535.45
522.85 K, Mass density=117 kg/m3	245.27
522.85 K, Mass density=142.27 kg/m3	540.12
523.04 K, Mass density=117 kg/m3	242.75
523.04 K, Mass density=142.27 kg/m3	544.87
523.22 K, Mass density=117 kg/m3	224.14
523.22 K, Mass density=142.27 kg/m3	528.41
523.41 K, Mass density=117 kg/m3	213.62
523.41 K, Mass density=142.27 kg/m3	530.64
523.59 K, Mass density=142.27 kg/m3	531.67
523.78 K, Mass density=142.27 kg/m3	532.34
524.33 K, Mass density=142.27 kg/m3	531.23
524.52 K, Mass density=142.27 kg/m3	529.97
524.7 K, Mass density=142.27 kg/m3	534.05
524.89 K, Mass density=142.27 kg/m3	531.45
525.07 K, Mass density=142.27 kg/m3	529.6
525.26 K, Mass density=142.27 kg/m3	530.41
525.44 K, Mass density=142.27 kg/m3	530.93
525.63 K, Mass density=142.27 kg/m3	531.82
525.81 K, Mass density=142.27 kg/m3	537.01
525.99 K, Mass density=142.27 kg/m3	538.94
527.1 K, Mass density=142.27 kg/m3	532.93
527.29 K, Mass density=142.27 kg/m3	536.64
